In patent US6495693B2, “N-(aryl/heteroaryl) amino acid derivatives, pharmaceutical compositions comprising same, and methods for inhibiting β-amyloid peptide release and/or its synthesis by use of such compounds” (Athena Neurosciences, Inc., priority 1996, dated 2002):

| melting point [°C] | SMILES |
| --- | --- |
| 156 to 158 | CC(Nc1ccc(Cl)c(Cl)c1)C(=O)NC(=O)[C@@H](N)C(C)C (mixture of isomers) [Example 6, N-[N-(3,4dichlorophenyl)-D,L-alanyl]-L-valine amide] |
| 177 to 179 | CC(Nc1ccc(Cl)c(Cl)c1)C(=O)NC(=O)[C@@H](N)Cc1ccccc1 (mixture of isomers) [Example 36, N-[N-(3,4dichlorophenyl)-D,L-alanyl]-L-phenylalanine amide] |
| 163 to 165 | CCCC[C@H](NC(=O)[C@H](C)Nc1ccc(Cl)c(Cl)c1)C(=O)OC [Example 15, N-[N-(3,4dichlorophenyl)-L-alanyl]-(S)-2-aminohexanoic acid methyl ester] |
| 156 to 161 | CCCC[C@H](N)C(=O)NC(=O)[C@H](C)Nc1ccc(Cl)c(Cl)c1 [Example 40, N-[N-(3,4-dichlorophenyl)-L-alanyl]-(S)-2-aminohexanamide] |
| 184 to 186 | CCCC[C@H](N)C(=O)NC(=O)[C@H](C)Nc1ccc(Cl)c(Cl)c1 [Example 51, N-[N-(3,4dichlorophenyl)-L-alanyl]-(S)-2-aminohexanamide] |

The remaining lines, values behind:

| SMILES | melting point [°C] |
| --- | --- |
| CC(Nc1ccc(Cl)c(Cl)c1)C(=O)N[C@H](C(=O)N(C)C)C(C)C (mixture of isomers) [Example 8, N-[N-(3,4-dichlorophenyl)-D,L-alanyl]-L-valine N,N-dimethyl amide] | 145 to 160 |
| COC(=O)[C@H](Cc1c[nH]c2ccccc12)NC(=O)C(C)Nc1ccc(Cl)c(Cl)c1 (mixture of isomers) [Example 16, N-[N-(3,4dichlorophenyl)-D,L-alanyl]-L-tryptophan methyl ester] | 54 to 66 |
| COC(=O)[C@H](CC(=O)O)NC(=O)C(C)Nc1ccc(Cl)c(Cl)c1 (mixture of isomers) [Example 18, N-[N-(3,4dichlorophenyl)-D,L-alanyl]-L-aspartic acid methyl ester] | 53.5 to 56 |
| COC(=O)[C@H](Cc1c[nH]cn1)NC(=O)C(C)Nc1ccc(Cl)c(Cl)c1 (mixture of isomers) [Example 46, N-[N-(3,4-dichlorophenyl)-D,L-alanyl]-L-histidine methyl ester] | 55 to 60 |
| COC(=O)[C@H](C)NC(=O)C(C)Nc1cc(F)cc(F)c1 (mixture of isomers) [Example 49, N-[N-(3,5-difluorophenyl)-D,L-alanyl]-L-alanine methyl ester] | 93 to 95 |
| CCCC[C@H](NC(=O)C(C)Nc1cc(F)cc(F)c1)C(=O)OC (mixture of isomers) [Example 50, N-[N-(3,5-difluorophenyl)-D,L-alanyl]-(S)-2-aminohexanoic acid methyl ester] | 93 to 95 |
| COC(=O)[C@H](CC(C)C)NC(=O)[C@H](C)Nc1ccc(Cl)c(Cl)c1 [Example 11, N-[N-(3,4dichlorophenyl)-L-alanyl]-L-leucine methyl ester] | 120 to 132 |
| COC(=O)[C@H](Cc1ccccc1)NC(=O)[C@H](C)Nc1ccc(Cl)c(Cl)c1 [Example 12, N-[N-(3,4-dichlorophenyl)-L-alanyl]-L-phenylalanine methyl ester] | 122 to 124.5 |
| CCCC[C@H](NC(=O)[C@H](C)Nc1nc2ccccc2s1)C(=O)OC [Example 48, N-[N-(benzothiazol-2-yl)-L-alanyl]-(S)-2-aminohexanoic acid methyl ester] | 99 to 120 |
